For series [1], the system named is "atypical" BuChE. Particulars: cited from earlier work.
Series [2] has as its system "atypical" BuChE. Particulars: cited from earlier work. This is another data set of the same source.
The test system of another series is "atypical" serum BuChE. Type of series: biochemical, human.
Series [3] deals with Alzheimer's disease. Particulars: in vivo; cited from earlier work.
In the next series the test system is AChE. Type of series: biochemical, human.
The next series has as its target BuChE "atypical" (Homo sapiens, UniProt P06276, D98G).
The next series concerns the target BuChE normal (Homo sapiens, UniProt P06276). The format is biochemical.
In a further series the target is AChE E5 (Homo sapiens, UniProt P22303). Type of series: biochemical.
A further series has as its target AChE E6 (Homo sapiens, UniProt P22303). Type of series: biochemical.
The conditions of series [4]: in vivo.
For series [5], the system named is normal and "atypical" BuChE. The format is biochemical, human.
Series [6] relates to "atypical" BuChE. Particulars: cited from earlier work. The source holds these as a separate data set.
Series [7] deals with BuChE from heterozygous serum. Type of series: biochemical, human. Particulars: 30 min, 10 µM.
The subject of a further series is serum BuChE. Particulars: in vivo; cited from earlier work.
A further series concerns normal serum BuChE. Type of series: biochemical, human. Particulars: 30 min, 10 µM.
Series [8] deals with ChEs (all of the examined enzymes). Type of series: biochemical, human.
In the next series the test system is REM sleep. Particulars: in vivo; cited from earlier work.
For series [9] the following is noted: human, in vivo; cited from earlier work.
In another series the target is serum BuChE "atypical" (Homo sapiens, UniProt P06276, D98G).
Another series relates to Parkinson's disease. Particulars: human, in vivo; cited from earlier work.
Series [10] has as its system BuChE of heterozygotes / 1:1 mixture of normal and "atypical" BuChE.
The subject of series [11] is Alzheimer's disease. Particulars: in vivo; cited from earlier work. This is another data set of the same source.
A further series concerns horse serum BuChE. Particulars: cited from earlier work.
The test system of series [12] is "atypical" BuChE. Type of series: biochemical, human.
The conditions of series [13]: in vivo. The source holds these as a separate data set.

“Also recorded” adds a separate entry of the source.

Chain of BuChE "atypical" (P06276 29-602 D98G limits assumed): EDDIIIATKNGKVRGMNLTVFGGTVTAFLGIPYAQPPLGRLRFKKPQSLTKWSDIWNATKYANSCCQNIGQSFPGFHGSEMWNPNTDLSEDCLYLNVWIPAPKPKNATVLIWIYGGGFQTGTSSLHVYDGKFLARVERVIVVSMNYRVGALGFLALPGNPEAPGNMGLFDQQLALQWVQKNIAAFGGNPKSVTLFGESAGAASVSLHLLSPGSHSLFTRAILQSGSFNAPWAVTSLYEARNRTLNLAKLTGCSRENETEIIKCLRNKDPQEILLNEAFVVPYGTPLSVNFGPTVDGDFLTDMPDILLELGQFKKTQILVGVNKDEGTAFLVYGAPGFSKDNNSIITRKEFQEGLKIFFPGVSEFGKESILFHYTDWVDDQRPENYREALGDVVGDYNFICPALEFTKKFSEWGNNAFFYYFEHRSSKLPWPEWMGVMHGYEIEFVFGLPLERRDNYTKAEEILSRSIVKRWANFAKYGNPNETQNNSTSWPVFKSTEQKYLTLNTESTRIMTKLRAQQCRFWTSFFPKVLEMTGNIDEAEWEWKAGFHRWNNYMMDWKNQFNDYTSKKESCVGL
Chain of AChE E6 (P22303 32-614): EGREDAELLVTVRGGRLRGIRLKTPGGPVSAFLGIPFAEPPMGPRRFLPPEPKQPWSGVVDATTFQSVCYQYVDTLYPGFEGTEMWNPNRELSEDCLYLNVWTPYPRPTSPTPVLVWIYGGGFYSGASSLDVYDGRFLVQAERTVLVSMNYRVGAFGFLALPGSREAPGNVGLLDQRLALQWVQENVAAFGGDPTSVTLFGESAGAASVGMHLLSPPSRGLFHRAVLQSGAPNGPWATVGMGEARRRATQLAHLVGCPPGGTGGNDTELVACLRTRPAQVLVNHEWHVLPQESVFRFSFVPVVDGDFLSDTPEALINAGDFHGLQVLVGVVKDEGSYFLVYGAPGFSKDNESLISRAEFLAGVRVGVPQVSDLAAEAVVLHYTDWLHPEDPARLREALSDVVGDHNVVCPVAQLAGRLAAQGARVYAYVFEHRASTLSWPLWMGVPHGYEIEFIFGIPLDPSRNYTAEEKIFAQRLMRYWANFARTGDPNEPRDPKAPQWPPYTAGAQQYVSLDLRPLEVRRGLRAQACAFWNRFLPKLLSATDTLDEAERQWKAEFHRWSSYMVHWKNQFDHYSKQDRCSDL
Chain of AChE E5 (P22303-4 with tags, fused parts or gaps limits assumed): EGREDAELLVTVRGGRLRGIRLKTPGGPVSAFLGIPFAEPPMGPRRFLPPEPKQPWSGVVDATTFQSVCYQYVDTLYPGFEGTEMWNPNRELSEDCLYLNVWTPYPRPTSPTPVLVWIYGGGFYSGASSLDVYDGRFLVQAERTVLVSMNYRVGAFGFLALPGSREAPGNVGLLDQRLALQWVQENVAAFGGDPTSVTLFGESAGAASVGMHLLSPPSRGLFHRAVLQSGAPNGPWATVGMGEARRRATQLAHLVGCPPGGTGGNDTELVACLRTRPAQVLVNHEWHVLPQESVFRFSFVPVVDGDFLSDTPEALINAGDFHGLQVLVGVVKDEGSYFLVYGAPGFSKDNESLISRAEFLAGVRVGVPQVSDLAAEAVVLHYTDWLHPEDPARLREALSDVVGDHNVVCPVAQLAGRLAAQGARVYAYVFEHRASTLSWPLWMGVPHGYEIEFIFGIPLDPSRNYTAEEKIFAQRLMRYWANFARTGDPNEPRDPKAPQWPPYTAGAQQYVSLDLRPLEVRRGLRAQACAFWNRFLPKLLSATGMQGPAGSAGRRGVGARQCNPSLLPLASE
Chain of BuChE normal (P06276 29-602): as the sequence (P06276 29-602 D98G limits assumed) above, with G70D counted along it
Chain of serum BuChE "atypical" (P06276 29-602 D98G limits assumed): as the sequence (P06276 29-602 D98G limits assumed) above

Consider `CCCCOc1cc(C(=O)NCCN(CC)CC)c2ccccc2n1` [dibucaine], for which the “hydrolysis by "atypical" BuChE” value in the series with "atypical" BuChE [1] is recorded as “inability of the affected enzyme to hydrolyze”.

`CN(C)C(=O)Oc1cc(OC(=O)N(C)C)cc(C(O)CNC(C)(C)C)c1` (stereo not drawn) [bambuterol]: in the series with "atypical" BuChE [2], the “IC50, higher for "atypical" than wild-type BuChE” value is listed as “at least 10 fold” and the “Ki, higher for "atypical" than wild-type BuChE” value is recorded as “at least 10 fold”.

Consider `CNC(=O)Oc1ccc2c(c1)[C@]1(C)CCN(C)[C@@H]1N2C` [physostigmine], for which the “reaction of "atypical" BuChE with carbamates, compared with its normal counterpart” value (“reaction … compared with its normal counterpart” below) with "atypical" serum BuChE is listed as “much slower”. In addition, the “effect on cognitive functions” value with Alzheimer's disease [3] is listed as “small, short-term positive effect on cognitive functions”. In addition, the spontaneous reactivation result with AChE was “up to 90%”. At BuChE "atypical", the “inactivation rates of "atypical" BuChE” value was “considerably lower rates” and the “second order rate constants, ki, for inactivation” value (“second order rate constants, ki” for short) is 2.6 × 10^4 ± 0.9 × 10^4. In addition, at BuChE normal, the “inactivation rates of common BuChE compared with AChE” value is “higher than or equal to” and the “second order rate constants, ki” value is 3.8 × 10^5 ± 1.6 × 10^5. For the same compound, in the series on "atypical" BuChE [2], the “IC50, higher for "atypical" than wild-type BuChE” value is given as “at least 10 fold”; the “Ki, higher for "atypical" than wild-type BuChE” value is “at least 10 fold”; the “sensitivity of the atypical variant to inhibitors” value is reported as “much less sensitive”.

On to `CN(C)C(=O)Oc1ccc[n+](C)c1` [pyridostigmine], for which the “reaction … compared with its normal counterpart” value with "atypical" serum BuChE was “much slower”. Moreover, the figures for the “second order rate constants, ki” value at AChE E5, at BuChE normal and at AChE E6 were 2.5 × 10^4, 1.9 × 10^3 ± 0.2 × 10^3 and 2.2 × 10^4, respectively. The reactivation with AChE is given as 50%; in series [5], 10%. Moreover, the “adverse symptoms under pyridostigmine” value in series [4] is “insomnia, weight loss and general fatigue, which worsened consistently, and a deep depression”.

For `CCN(CC)CCOC(=O)c1ccc(N)cc1` [procaine], the “Km with "atypical" variant, higher than with usual enzyme” value (from here on “Km with "atypical" variant, higher than”) in the series with "atypical" BuChE [6] is given as 15 fold.

On to `CCN(C)C(=O)Oc1cccc([C@H](C)N(C)C)c1` [SDZ ENA-713], for which, in the series on "atypical" serum BuChE, the “reaction … compared with its normal counterpart” value is listed as “much slower”. Further, the “decrease in BuChE activity” value with "atypical" serum BuChE (serum, 30 min, 10 µM) is recorded as “about 40%”. In addition, the “loss of BuChE activity” value turned out to be 80% in [7] and 95% with normal serum BuChE. Further, in the series on serum BuChE, the “serum BuChE activity” value is recorded as “transient drop in serum BuChE activity”. Also, the “second order rate constants, ki” value at AChE E5 is reported as 3.3 × 10^3; on BuChE "atypical", 4.7 × 10^2 ± 4.6 × 10^2; at BuChE normal it was 1.4 × 10^4 ± 0.3 × 10^4; on AChE E6, 4.3 × 10^3. Moreover, at BuChE "atypical", the “inactivation rates of "atypical" BuChE” value is “considerably lower rates”. On BuChE normal, the “inactivation rates of common BuChE compared with AChE” value is listed as “higher than or equal to”. The reactivation levels in series [8] was ≤ 8%. The “frequency of rapid eye movements during REM sleep” value with REM sleep is “increase the frequency of rapid eye movements during REM sleep”.

Consider `CC(C)NP(=O)(NC(C)C)OP(=O)(NC(C)C)NC(C)C` [iso-OMPA], for which the “sensitivity of the atypical variant to inhibitors” value in the series with "atypical" BuChE [2] is listed as “much less sensitive”.

Turning to `CCCCCCCNC(=O)Oc1ccc2c(c1)C1(C)CCN(C)C1N2C` (single isomer, unassigned) [N-heptyl physostigmine], in the series on "atypical" serum BuChE, the “reaction … compared with its normal counterpart” value is given as “much slower”. Moreover, the “second order rate constants, ki” value at AChE E5 is on record as 1.4 × 10^6; at BuChE "atypical", 7.7 × 10^5 ± 4.4 × 10^5; at BuChE normal it was 1.1 × 10^7 ± 0.3 × 10^7; on AChE E6, 1.6 × 10^6. Moreover, the reactivation with AChE was 5%. Further, the “inactivation rates of "atypical" BuChE” value at BuChE "atypical" was “considerably lower rates”. In addition, the “inactivation rates of common BuChE compared with AChE” value at BuChE normal is on record as “higher than or equal to”. The original activity regained in series [5] is 10%.

Consider `CC(=O)Oc1ccc2c3c1O[C@H]1[C@@H](OC(C)=O)C=C[C@H]4[C@@H](C2)N(C)CC[C@@]341` [heroin], for which the “Km with "atypical" variant, higher than” value with "atypical" BuChE [6] is listed as 4 fold.

Turning to `CC(=O)Oc1ccccc1C(=O)O` [aspirin], in the series with "atypical" BuChE [6], the “Km with "atypical" variant, higher than” value is recorded as ~4 fold.

Consider `Nc1c2c(nc3ccccc13)CCCC2` [Tacrine, 1,2,3,4-tetrahydro-9 aminoacridine], for which, in series [9], the “cases in which aminotransferase reached 20 times the upper limit of normal” value is 2%; the “patients with severe cholinergic side-effects” value was “over 10%”; the “serum alanine aminotransferase level in 2% of the cases” value is 20 times the upper limit of normal; the “serum alanine aminotransferase level, usually” value was “less than three times the upper limit of normal value”. The “serum BuChE activity” value in the series with serum BuChE is “transient drop in serum BuChE activity”. The “capacity of "atypical" BuChE to interact with tacrine, compared with the normal enzyme” value at serum BuChE "atypical" is listed as “drastic reduction”. Besides, in the series on Parkinson's disease, the “symptoms of PD patient” value is reported as “worsening of the symptoms”. Besides, in series [10], the “inhibition curves of mixtures of normal and "atypical" enzyme” value is “expected intermediary inhibition curves”; the “inhibition in the presence of 1 μm tacrine” value was “intermediate levels of activity”. Also, the “improvement in Alzheimer's disease patients” value in the series on Alzheimer's disease [11] is recorded as “statistically significant, dose-related improvements”.

For the compound `C[N+](C)(C)CCOC(=O)CCC(=O)OCC[N+](C)(C)C` [succinylcholine], the “hydrolysis by horse serum BuChE” value in the series with horse serum BuChE is “will not hydrolyze”. In addition, the “hydrolysis by serum BuChE of H. K.” value with "atypical" BuChE [12] was “totally incapable of hydrolyzing; also recorded: cannot hydrolyze”. For the same compound, the post-anesthesia apnea result in series [13] is “two hour post-anesthesia apnea”. The “hydrolysis by "atypical" BuChE” value with "atypical" BuChE [1] is “unable to hydrolyze; also recorded: inability of the affected enzyme to hydrolyze”.

Source of the values: patent publication US5807671A (priority 1995, dated 1998).
